Data as given in PMC9025605, “Polymerized β-Cyclodextrin-Based Injectable Hydrogel for Sustained Release of 5-Fluorouracil/Methotrexate Mixture in Breast Cancer Management: In Vitro and In Vivo Analytical Validations” (Pharmaceutics, 2022).
Like-named read-outs stand apart in the source and are kept apart here.

Legend:
[1] = test system: mammary gland tissues; assay: Histopathological examination of tumor masses (H and E); assay type: in vivo, female rats; conditions: tumor-bearing rats versus untreated G1
Procedure: Several tissue samples (n = 3) were taken from the tumor masses of the induced mammary glands and were fixed in formalin for 24 h. The fixed samples were processed for the usual histological procedures for hematoxylin and eosin stains, the counter staining of ultra-thin paraffin sections (5 µm; Micro HM 360® Microtome, Marshall Scientific, Hampton Virginia, USA). The stained sections were examined under a light microscope (Olympus B × 46) and were digitally photographed using its connected Olympus DP 21 digital camera (Olympus Corporation, Tokyo, Japan).

[2] = In vitro release of 5-FU and MTX from the medicated hydrogel in PBS at 37 °C; assay type: physicochemical; conditions: for duration of quantitative release from hydrogel: 0.1% w/v; for drug released from hydrogel within the first day / drug released from hydrogel within the second day: 0.1% w/v drug in hydrogel
Procedure: Several samples (n = 6) of the medicated hydrogel (0.5 g, containing 0.5 mg of each 5-FU and MTX), were placed in 2-mL glass vials and allowed to be incubated at 4 °C for 2 h. Next, one mL of PBS was added above the formulated hydrogel mass and allowed to be incubated in a thermostatic water bath under a shaking rate of 50 rpm at 37 °C. After specific time intervals (each 24 h), 700 µL of the supernatant was withdrawn and replaced immediately with a fresh-prepared PBS, previously incubated at the same temperature to ensure the sink conditions. This process of sample withdrawal and replacing was allowed to continue until the complete clearance or full release of both two incorporated drugs from the hydrogel samples. Thus, the concentration of 5-FU and MTX in the mixture, in each collected sample, was measured simultaneously at 266 nm and 302 nm, respectively, with the aid of the spectrophotometric method, as mentioned before.

[3] = design: method as in PMID 1246307, PMID 18794772, PMID 15018974; conditions: cited from earlier work
[4] = Pharmacokinetic study after intratumoral injection (plasma, HPLC); assay type: in vivo, albino female rats; conditions: for Cmax: rat plasma
Procedure: The present in vivo works was performed on albino female rats (weighing 185 ± 15.1 g). The ethical approval of all the experiments was issued by the Faculty of Pharmacy, Al-Azhar University, under no AZ-AS/PH/2/C/2021. The rats were acclimatized at room temperature with a 12-h light/12-h dark cycle. Tumor-induction of 48 female rats were randomly divided into the four independent groups (with n = 12 per each group × triple trials); G1 was the controlled group, which is positive control and were received no any type of medications; G2 received a sole dose of 5-FU saline solution (100 mg/kg); G3 received a combined mixture of 5-FU/MTX saline solution (respectively, 100 and 40 mg/kg); and, finally, G4 received 5-FU/MTX hydrogel. The sole 5-FU and/or combined with MTX doses in normal saline were injected into rats using normal syringes, while the injectable medicated hydrogel doses were injected using a mixing syringe device (Doowon Meditec Corp., Youngin City, Republic of Korea). After finishing the administration processes, blood samples were collected at certain time intervals (0.5, 1, 2, 4, 6, 8, 10, 12, and 14 h). HPLC chromatographic analysis was utilized for the detection of drug concentrations.
One mL of a plasma sample in an Eppendorf tube was initially mixed with phosphate buffer (0.2 mL of 0.5 M at pH 8), after being mixed in a vortex, and an ethyl acetate solution (4.0 mL) was added and mixed in a vortex for 1 min. Then, the contents of the tube were centrifuged at 5000 rpm and temperature 10 °C for 5 min. The organic phase was taken and evaporated until dry, by using a stream of nitrogen gas at 55 °C. The drug mixture in the residue was reconstituted by a solution of potassium dihydrogen phosphate (100 µL of 0.01 M, at pH 4.0), and, then, the resulted solution was filtrated through a 0.2 μm filter syringe, before transferring into autosampler vials of the chromatographic analysis.
A high-performance liquid chromatography, HPLC (Parkin Elmer, JASCO Corporation, Tokyo, Japan), equipped with an autosampler, was used through this study. The detection method was performed using a variable wavelength UV detector, which adjusted at 266 nm for both drugs. The analytical Phenomenex, C18 symmetry RPh-column (4.6 × 250 mm; 5 µm PS) (Cap cell Pak UG120, Shiseido, Tokyo, Japan), was used at 40 °C. The mobile phase was an isocratic mixture (89:11, v/v) of, respectively, methanol and potassium dihydrogen phosphate (10 mM and adjusted to pH 4 with the aid orthophosphoric acid), which was pumped at a flow rate of 1.0 mL/min. The injected volume was 20 µL.
The concentrations of 5-FU and MTX in different rats’ plasma samples (n = 6) were calculated from the corresponding calibration curves equation, developed in the above HPLC method. The plasma concentration-time (Cp/) curve of 5FU/MTX (plasma concentrations; µg/mL in case of using a vehicle of saline, and ng/mL in case of using a vehicle hydrogel) was constructed for both drugs. Next, from the constructed (Cp/t) curves, all the common pharmacokinetic parameters of both drugs were determined using the following Equation (1). […] Moreover, the area under the Cp/t curve (AUC0-24 and AUC0-∞) (ng. h/mL) was measured using the trapezoidal rule to indicate the extent of drug absorption. The peak Cp (Cmax), the time corresponding to the maximum Cp (Tmax), and the half-life, t1/2 (h), were calculated.

[5] = test system: breast tumor (chemically induced breast cancer); assay: Effect on tumor growth (tumor volume, % inhibition); assay type: in vivo, female rats; conditions: negative = tumor growth, read from Figure 6
Procedure: For transplantation experiments, recipient syngeneic female rats (6–7 weeks old) were anesthetized with an intramuscular injection of ketamine (8.0 mg/kg dose) and xylazine (10 mg/kg dose). Breast cancer was induced to the investigated rats by chemical induction using […], previously reported techniques. […] The tumor size for all animals was examined using a Vernier caliper (micrometer-Ozaki Ltd., Tokyo, Japan) and calculated using the following Equation (2). TV (mm^3) = 1/2 × Length × Width^2(2)
Thus, the changes in a tumor volume in rats were determined every 5 days for 15 days after administration of the injectable medicated hydrogel (contains a concentration of 100 and 40 mg/kg, respectively, for 5-FU and MTX). The antitumor effect was monitored via measuring both the relative tumor volume (RTV), representing the tumor volume after treatment, using Equation (3). (3) % RTV=(Vt)/(V0)×100 where, Vt represents the tumor volume at each time interval, and V0 is a tumor volume directly after drug injection. The % of tumor volume inhibition was calculated using the following Equation (4). (4) % Inhibition =1−(Vt)/(V0)×100

Compound | histopathological finding in mammary gland tissue [1] | duration of quantitative release from hydrogel [2] | drug released from hydrogel within the first day [2] [%] | drug released from hydrogel within the second day [2] [%] | completeness of the release profile of 5-FU ([2]; drug concentration 0.1%) [days] | completeness of the release profile of 5-FU ([2]; drug concentration 0.3%) [days] | completeness of the release profile of 5-FU ([2]; drug concentration 0.5%) [days] | half-life [3] [min] | Tmax ([4]; female, rat, plasma, 100 mg/kg, sole administration of 5-FU in saline) [min] | Cmax ([4]; female, 5-FU alone in saline, 100 mg/kg, intratumoral, read-out: Cmax) [ng/mL] | time within which in vivo release ended ([4]; free 5-FU solution, 100 mg/kg in saline) [h] | elimination half-life (t1/2) ([4]; free 5-FU solution, first order) [min] | % Inhibition of tumor volume ([5]; 5 days after treatment) [%] | % Inhibition of tumor volume ([5]; 10 days after treatment) [%] | % Inhibition of tumor volume ([5]; 15 days after treatment) [%] | Cmax ([4]; female, other: intratumoral injection, MTX 40 mg/kg, combined with 5-FU in saline, read-out: Cmax of MTX) [ng/mL]
O=c1[nH]cc(F)c(=O)[nH]1 [5-FU, 5-fluorouracil] | Only mild improvement | two weeks | 15 | 38 | ≤ 14 | ≤ 18 | ≤ 21 | 10 to 20 | 60 | 25200 | ≤ 7 | 30 | -25 | -90 | -185 | –
CN(Cc1cnc2nc(N)nc(N)c2n1)c1ccc(C(=O)N[C@@H](CCC(=O)O)C(=O)O)cc1 [MTX, methotrexate] | – | two weeks | 40 | 60 | – | – | – | – | – | – | – | – | – | – | – | 15200
